Results on 15 compounds are retold here after patent publication US20230374038A1, “MODULATORS OF CYSTIC FIBROSIS TRANSMEMBRANE CONDUCTANCE REGULATOR” (VERTEX PHARMACEUTICALS INCORPORATED, priority 2020, published 2023).

Structures are written as SMILES. Read-outs that look alike come from different tables or passages of the source.

The target of data set [1] is CFTR (Homo sapiens, UniProt P13569). Description: Membrane Potential Dye, Enteroid Assay B. It is filed as cell-based. Summed up:
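Human intestinal enteroids seeded at 5000 cells/well, treated with compound 18-24 h at 37 °C, then loaded 25 min with methyl oxonol membrane-potential dye plus CaCC blockers. Chloride transport started in chloride-free buffer with 10 μM forskolin, 100 μM IBMX and 300 nM Compound III, read 15 min; expressed as % of triple-combination control.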

Data set [2] addresses T1, CFTR (Homo sapiens, UniProt P13569, DEL508-508).
T1 construct: endogenous in cells; host or cells: primary human bronchial epithelial cells, F508del/MF genotype
Nature of the data set: HBE2 Assay: Ussing chamber assay of CFTR-mediated short-circuit currents in F508del/MF-HBE cells with 44 nM (6R,12R)-17-amino-12-methyl-6,15-bis(trifluoromethyl)-13,19-dioxa-3,4,18-triazatricyclo[12.3.1.12,5]nonadeca-1(18),2,4,14,16-pentaen-6-ol. It is filed as cell-based. The settings on record: 3 μM with 44 nM (6R,12R)-17-amino-12-methyl-6,15-bis(trifluoromethyl)-13,19-dioxa-3,4,18-triazatricyclo[12.3.1.12,5]nonadeca-1(18),2,4,14,16-pentaen-6-ol, 18-24 hours, 20% human serum. How it is done:
Ussing chamber experiments were performed using human bronchial epithelial (HBE) cells derived from CF subjects heterozygous for F508del and a minimal function CFTR mutation (F508del/MF-HBE) and cultured as previously described (Neuberger T, Burton B, Clark H, Van Goor F Methods Mol Biol 2011:741:39-54). After four days the apical media was removed, and the cells were grown at an air liquid interface for >14 days prior to use.
To isolate the CFTR-mediated short-circuit (ISC) current, F508del/MF-HBE grown on Costar® Snapwell™ cell culture inserts were mounted in an Ussing chamber and the transepithelial ISC was measured under voltage-clamp recording conditions (Vhold=0 mV) at 37° C. The basolateral solution contained (in mM) 145 NaCl, 0.83 K2HPO4, 3.3 KH2PO4, 1.2 MgCl2, 1.2 CaCl2), 10 Glucose, 10 HEPES (pH adjusted to 7.4 with NaOH) and the apical solution contained (in mM) 145 NaGluconate, 1.2 MgCl2, 1.2 CaCl2), 10 glucose, 10 HEPES (pH adjusted to 7.4 with NaOH) and 30 μM amiloride to block the epithelial sodium channel. Forskolin (20 μM) was added to the apical surface to activate CFTR, followed by apical addition of a CFTR inhibitor cocktail consisting of BPO, GlyH-101, and CFTR inhibitor 172 (each at 20 μM final assay concentration) to specifically isolate CFTR currents. The CFTR-mediated ISC (μA/cm^2) for each condition was determined from the peak forskolin response to the steady-state current following inhibition.
The activity of the CFTR corrector compounds on the CFTR-mediated ISC was determined in Ussing chamber studies as described above. The F508del/MF-HBE cell cultures were either incubated with the corrector compounds at a range of concentrations in combination with 44 nM (6R,12R)-17-amino-12-methyl-6,15-bis(trifluoromethyl)-13,19-dioxa-3,4,18-triazatricyclo[12.3.1.12,5]nonadeca-1(18),2,4,14,16-pentaen-6-ol or were incubated with the corrector compounds at a single fixed concentration of 1 and 3 μM in combination with 44 nM (6R,12R)-17-amino-12-methyl-6,15-bis(trifluoromethyl)-13,19-dioxa-3,4,18-triazatricyclo[12.3.1.12,5]nonadeca-1(18),2,4,14,16-pentaen-6-ol for 18-24 hours at 37° C. and in the presence of 20% human serum. The concentration of corrector compounds with 44 nM (6R,12R)-17-amino-12-methyl-6,15-bis(trifluoromethyl)-13,19-dioxa-3,4,18-triazatricyclo[12.3.1.12,5]nonadeca-1(18),2,4,14,16-pentaen-6-ol during the 18-24 hours incubations was kept constant throughout the Ussing chamber measurement of the CFTR-mediated ISC to ensure compounds were present throughout the entire experiment.

T1 sequence (P13569 with tags, fused parts or gaps DEL508-508): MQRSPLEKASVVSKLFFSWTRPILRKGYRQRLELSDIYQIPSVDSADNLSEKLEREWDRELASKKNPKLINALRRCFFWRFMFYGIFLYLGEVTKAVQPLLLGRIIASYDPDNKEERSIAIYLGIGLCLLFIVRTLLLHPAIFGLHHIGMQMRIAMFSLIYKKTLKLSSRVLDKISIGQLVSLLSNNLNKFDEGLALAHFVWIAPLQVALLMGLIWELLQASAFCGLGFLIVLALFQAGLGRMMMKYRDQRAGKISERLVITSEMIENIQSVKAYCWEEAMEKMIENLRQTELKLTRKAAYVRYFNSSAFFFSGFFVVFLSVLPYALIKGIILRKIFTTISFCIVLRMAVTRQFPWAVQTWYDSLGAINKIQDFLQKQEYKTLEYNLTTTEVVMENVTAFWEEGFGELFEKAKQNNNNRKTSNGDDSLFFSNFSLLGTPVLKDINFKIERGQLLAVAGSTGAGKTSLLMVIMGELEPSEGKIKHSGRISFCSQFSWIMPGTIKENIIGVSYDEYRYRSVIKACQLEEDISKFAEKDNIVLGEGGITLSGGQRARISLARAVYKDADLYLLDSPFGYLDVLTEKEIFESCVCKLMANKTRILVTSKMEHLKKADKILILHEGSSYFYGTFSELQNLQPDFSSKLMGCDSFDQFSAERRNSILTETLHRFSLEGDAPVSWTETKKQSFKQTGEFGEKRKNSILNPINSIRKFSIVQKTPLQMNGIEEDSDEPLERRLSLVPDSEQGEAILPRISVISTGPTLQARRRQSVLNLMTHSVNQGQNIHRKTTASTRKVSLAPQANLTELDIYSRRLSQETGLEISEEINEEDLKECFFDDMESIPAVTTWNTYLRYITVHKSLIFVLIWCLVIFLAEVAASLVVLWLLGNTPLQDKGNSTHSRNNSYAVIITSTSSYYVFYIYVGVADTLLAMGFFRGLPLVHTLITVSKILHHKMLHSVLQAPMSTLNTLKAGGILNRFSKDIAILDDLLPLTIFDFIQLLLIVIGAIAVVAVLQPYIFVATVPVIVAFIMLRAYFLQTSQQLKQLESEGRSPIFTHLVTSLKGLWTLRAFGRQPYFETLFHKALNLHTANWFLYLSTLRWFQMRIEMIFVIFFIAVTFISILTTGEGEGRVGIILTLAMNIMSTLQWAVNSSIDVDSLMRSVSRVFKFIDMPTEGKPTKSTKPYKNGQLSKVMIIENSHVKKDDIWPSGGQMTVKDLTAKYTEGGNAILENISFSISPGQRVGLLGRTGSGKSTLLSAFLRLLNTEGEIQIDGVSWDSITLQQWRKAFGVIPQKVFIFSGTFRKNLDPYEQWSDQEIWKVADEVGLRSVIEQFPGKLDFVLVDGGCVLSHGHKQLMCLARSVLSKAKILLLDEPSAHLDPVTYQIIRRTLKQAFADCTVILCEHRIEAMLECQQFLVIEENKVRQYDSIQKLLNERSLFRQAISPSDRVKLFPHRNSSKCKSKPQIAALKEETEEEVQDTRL
Sequence of CFTR (Homo sapiens, UniProt P13569) (P13569 with tags, fused parts or gaps DEL508-508): as above

Where the note is “from CC(C)(C)c1c(Cl)nc(NS(=O)(=O)c2cccc(C(=O)N3Cc4ccccc4C(O)C3)c2)nc1Cl, snar bond, 13-membered ring, NaH, NMP, 8.0 mM, 70.0 °C, 2.0 h”, `CC(C)(C)c1c(Cl)nc2nc1OC1CN(Cc3ccccc31)C(=O)c1cccc(c1)S(=O)(=O)N2` (stereo not drawn) showed a ring closure, isolated yield of 39%.
The compound `CCc1c(Cl)nc2nc1Oc1ccc(Cl)c(c1)C(=O)Nc1cccc(c1)S(=O)(=O)N2` gave a ring closure, isolated yield (from CCc1c(Cl)nc(NS(=O)(=O)c2cccc(N)c2)nc1Oc1ccc(Cl)c(C(=O)O)c1, amide bond, 14-membered ring, HATU/DIEA, DMF, 0.42 h, 3 steps) of 7%.
`CCc1c(Cl)nc2nc1Oc1cccc(c1)C(=O)Nc1cccc(c1)S(=O)(=O)N2`: the ring closure, isolated yield by setting is: (from CCc1c(Cl)nc(NS(=O)(=O)c2cccc(N)c2)nc1Oc1cccc(C(=O)O)c1, amide bond, 14-membered ring, HATU/DIEA, DMF, 53.0 mM, 0.33 h, 2 steps) 19%; (from CCc1c(Cl)nc(NS(=O)(=O)c2cccc(N)c2)nc1Oc1cccc(C(=O)O)c1, amide bond, 14-membered ring, HATU/DIEA, DMF, 50.0 °C, 2.5 h, 4 steps) 8%.
`Cc1cccc(C)c1-c1nc2nc(c1Br)OC[C@@H](CC(C)C)N(C1CC3(CC3)C1)C(=O)c1cccc(c1)S(=O)(=O)N2` displayed a ring closure, isolated yield (from Cc1cccc(C)c1-c1nc(NS(=O)(=O)c2cccc(C(=O)O)c2)nc(OC[C@@H](CC(C)C)NC2CC3(CC3)C2)c1Br, amide bond, 13-membered ring, HATU/DIEA, NMP, 105.0 mM, 24.0 h) of 53%.
In turn, `Cc1cccc(C)c1-c1nc2nc(c1Br)O[C@H](C)CNC(=O)c1cccc(c1)S(=O)(=O)N2` yielded a ring closure, isolated yield (from Cc1cccc(C)c1-c1nc(NS(=O)(=O)c2cccc(C(=O)O)c2)nc(O[C@H](C)CN)c1Br, amide bond, 13-membered ring, HATU/HOBt/DIEA, DMF, 31.1 mM, 0.42 h) of 54%.
For the setting “from Cc1cccc(C)c1-c1nc(NS(=O)(=O)c2cccc(C(=O)O)c2)nc(OC[C@@H](CC(C)C)NC2CC3(CC(NC(=O)OC(C)(C)C)C3)C2)c1C, amide bond, 13-membered ring, HATU/DIEA, DMF, 14.1 mM, 3.0 h, 2 steps”, `Cc1cccc(C)c1-c1nc2nc(c1C)OC[C@@H](CC(C)C)N(C1CC3(CC(NC(=O)OC(C)(C)C)C3)C1)C(=O)c1cccc(c1)S(=O)(=O)N2` (stereo partly drawn) had a ring closure, isolated yield of 45%.
`Cc1cccc(C)c1-c1nc2nc(c1C)OC[C@@H](CC(C)C)N(C1CC3(CCN(C(=O)OC(C)(C)C)CC3)C1)C(=O)c1cccc(c1)S(=O)(=O)N2`: the ring closure, isolated yield (from Cc1cccc(C)c1-c1nc(NS(=O)(=O)c2cccc(C(=O)O)c2)nc(OC[C@@H](CC(C)C)NC2CC3(CCN(C(=O)OC(C)(C)C)CC3)C2)c1C, amide bond, 13-membered ring, HATU/DIEA, DMF, 9.1 mM, 3.0 h, 2 steps) came to 46%.
For the setting “from C=CCC[C@@](OCc1ccccc1)(c1nnc(-c2nc(O[C@H](C)CC=C)c(C(F)(F)F)cc2N(C(=O)OC(C)(C)C)C(=O)OC(C)(C)C)o1)C(F)(F)F, rcm bond, 14-membered ring, Grubbs 1st generation, DCE, 8.92 mM, 75.0 °C, 5.25 h”, `C[C@@H]1CC=CCC[C@](OCc2ccccc2)(C(F)(F)F)C2=NN=C(O2)c2nc(c(C(F)(F)F)cc2N(C(=O)OC(C)(C)C)C(=O)OC(C)(C)C)O1` (mixture of isomers) showed a ring closure, isolated yield of 53%.
Take `Cc1cccc(C)c1-c1nc2nc(c1C)OC[C@@H](CCC(C)(C)O)N(C1CC3(CC3)C1)C(=O)c1cccc(c1)S(=O)(=O)N2` [Compound 106, (11R)-6-(2,6-dimethylphenyl)-11-(3-hydroxy-3-methyl-butyl)-7-methyl-2,2-dioxo-12-spiro[2.3]hexan-5-yl-9-oxa-2λ^6-thia-3,5,12,19-tetrazatricyclo[12.3.1.14,8]nonadeca-1(18),4(19),5,7,14,16-hexaen-13-one]: at CFTR [1], the “Ent. B Max Activity” value is “++ (++ is 30-60%)”. The EC50 on CFTR [1] (read-out: Ent. B EC50) lay within 1000 to 3000 nM. In addition, the ring closure, isolated yield (from Cc1cccc(C)c1-c1nc(NS(=O)(=O)c2cccc(C(=O)O)c2)nc(OC[C@@H](CCC(C)(C)O)NC2CC3(CC3)C2)c1C, amide bond, 13-membered ring, T3P/TEA, DMF/EtOAc, 51.6 mM, 17.0 h) was 31%.
`Cc1cccc(C)c1-c1nc2nc(c1C)OC[C@@H](CC(C)(C)C)N(c1cnn(C)c1CC(C)C)C(=O)c1cccc(c1)S(=O)(=O)N2` [Compound 364, (11R)-6-(2,6-Dimethylphenyl)-11-(2,2-dimethylpropyl)-12-(5-isobutyl-1-methyl-pyrazol-4-yl)-7-methyl-2,2-dioxo-9-oxa-2λ^6-thia-3,5,12,19-tetrazatricyclo[12.3.1.14,8]nonadeca-1(18),4(19),5,7,14,16-hexaen-13-one]: the “HBE2 Activity at 3 μM (%)” value on CFTR [2] is reported as “+++ (+++ is >60%)”.
The same measure, in the same setting: the same measure for `Cc1cccc(C)c1-c1nc2nc(c1F)OC[C@@H](CCC(C)(C)C)N(Cc1cncc(N(C)C3CCC3)n1)C(=O)c1cccc(c1)S(=O)(=O)N2` [Compound 365]: “+++ (+++ is >60%)”; for `Cc1cccc(C)c1-c1nc2nc(c1F)OC[C@@H](CCC(C)(C)C)N(Cc1cncc(N3CCC[C@H]3C)n1)C(=O)c1cccc(c1)S(=O)(=O)N2` [Compound 366]: “+++ (+++ is >60%)”; for `Cc1cccc(C)c1-c1nc2nc(c1F)OC[C@@H](CCC(C)(C)C)N(Cc1cncc(N3CCCC[C@H]3C)n1)C(=O)c1cccc(c1)S(=O)(=O)N2` [Compound 367]: “+++ (+++ is >60%)”.
The same measure, in the same setting: the same measure for `Cc1cccc(C)c1-c1nc2nc(c1F)OC[C@@H](CCC(C)(C)C)N(Cc1cnc3cc(C(C)C)n(C)c3n1)C(=O)c1cccc(c1)S(=O)(=O)N2` [Compound 368]: “+++ (+++ is >60%)”.
Same read-out and setting: the same measure for `Cc1cccc(C)c1-c1nc2nc(c1F)OC[C@@H](CCC(C)(C)C)N(Cc1ncc(OC(C)C)cn1)C(=O)c1cccc(c1)S(=O)(=O)N2` [Compound 369]: “+++ (+++ is >60%)”.
